Measured values published in patent US20260027116A1, “Methods of Treating Chronic Graft-Versus-Host Disease Following Allogeneic Hematopoietic Stem Cell Transplantation” (Kadmon Corporation, LLC, priority 2022, published 2026).

System: lung function
Experiment: Example 1: percent predicted HGB corrected DLco change from baseline
Format: in vivo, human
Conditions: mean (SD)
From the text: Change From Baseline in Percent Predicted Hemoglobin (HGB) Corrected Diffusing Capacity of Lung for Carbon Monoxide (DLco) at Each Specified Time Points. DLco is a measurement of the ability of the lungs to transfer gases from the air to the blood. Change from baseline in diffusing capacity of the lung for carbon monoxide (percent predicted hemoglobin level corrected) was reported for this measure. Baseline value was defined as valid and last non-missing value obtained within 28 days prior to participant receiving first study medication. EOT visit was performed within 3 days after the participant's last dose of study drug. […] Analysis was performed on mITT population. Here, ‘number analyzed’=participants with available data for each specified category. Here, ‘O’ in the number analyzed field signifies that none of the participants were available for the analysis at the specified time points.

## CC(C)NC(=O)COc1cccc(-c2nc(Nc3ccc4[nH]ncc4c3)c3ccccc3n2)c1 [Belumosudil, 2-{3-[4-(1H-indazol-5-ylamino)-2-quinazolinyl]phenoxy}-N-(propan-2-yl) acetamide]
Cohort 1: 200 mg QD, Cycle 3, Day 1
  Change From Baseline in Percent Predicted Hemoglobin (HGB) Corrected Diffusing Capacity of Lung for Carbon Monoxide (DLco): 4.545 (22.991) Percent Predicted HGB Corrected DLco
Cohort 1: 200 mg QD, Cycle 5, Day 1
  Change From Baseline in Percent Predicted Hemoglobin (HGB) Corrected Diffusing Capacity of Lung for Carbon Monoxide (DLco): 4.635 (23.989) Percent Predicted HGB Corrected DLco
Cohort 1: 200 mg QD, Cycle 7, Day 1
  Change From Baseline in Percent Predicted Hemoglobin (HGB) Corrected Diffusing Capacity of Lung for Carbon Monoxide (DLco): 1.521 (19.836) Percent Predicted HGB Corrected DLco
Cohort 1: 200 mg QD, Cycle 9, Day 1
  Change From Baseline in Percent Predicted Hemoglobin (HGB) Corrected Diffusing Capacity of Lung for Carbon Monoxide (DLco): −4.514 (7.401) Percent Predicted HGB Corrected DLco
Cohort 1: 200 mg QD, Cycle 11, Day 1
  Change From Baseline in Percent Predicted Hemoglobin (HGB) Corrected Diffusing Capacity of Lung for Carbon Monoxide (DLco): −0.625 (7.262) Percent Predicted HGB Corrected DLco
Cohort 1: 200 mg QD, Cycle 12, Day 1
  Change From Baseline in Percent Predicted Hemoglobin (HGB) Corrected Diffusing Capacity of Lung for Carbon Monoxide (DLco): 0.531 (—) Percent Predicted HGB Corrected DLco
Cohort 1: 200 mg QD, Cycle 13, Day 1
  Change From Baseline in Percent Predicted Hemoglobin (HGB) Corrected Diffusing Capacity of Lung for Carbon Monoxide (DLco): −5.548 (12.175) Percent Predicted HGB Corrected DLco
Cohort 1: 200 mg QD, Cycle 14, Day 1
  Change From Baseline in Percent Predicted Hemoglobin (HGB) Corrected Diffusing Capacity of Lung for Carbon Monoxide (DLco): 12.916 (—) Percent Predicted HGB Corrected DLco
Cohort 1: 200 mg QD, Cycle 15, Day 1
  Change From Baseline in Percent Predicted Hemoglobin (HGB) Corrected Diffusing Capacity of Lung for Carbon Monoxide (DLco): 0.228 (15.731) Percent Predicted HGB Corrected DLco
Cohort 1: 200 mg QD, Cycle 16, Day 1
  Change From Baseline in Percent Predicted Hemoglobin (HGB) Corrected Diffusing Capacity of Lung for Carbon Monoxide (DLco): 48.465 (—) Percent Predicted HGB Corrected DLco
Cohort 1: 200 mg QD, Cycle 17, Day 1
  Change From Baseline in Percent Predicted Hemoglobin (HGB) Corrected Diffusing Capacity of Lung for Carbon Monoxide (DLco): −1.018 (9.226) Percent Predicted HGB Corrected DLco
Cohort 1: 200 mg QD, Cycle 19, Day 1
  Change From Baseline in Percent Predicted Hemoglobin (HGB) Corrected Diffusing Capacity of Lung for Carbon Monoxide (DLco): −2.293 (5.763) Percent Predicted HGB Corrected DLco
Cohort 1: 200 mg QD, Cycle 21, Day 1
  Change From Baseline in Percent Predicted Hemoglobin (HGB) Corrected Diffusing Capacity of Lung for Carbon Monoxide (DLco): −2.778 (8.187) Percent Predicted HGB Corrected DLco
Cohort 1: 200 mg QD, Cycle 23, Day 1
  Change From Baseline in Percent Predicted Hemoglobin (HGB) Corrected Diffusing Capacity of Lung for Carbon Monoxide (DLco): 0.354 (1.844) Percent Predicted HGB Corrected DLco
Cohort 1: 200 mg QD, Cycle 24, Day 1
  Change From Baseline in Percent Predicted Hemoglobin (HGB) Corrected Diffusing Capacity of Lung for Carbon Monoxide (DLco): 6.945 (—) Percent Predicted HGB Corrected DLco
Cohort 1: 200 mg QD, Cycle 25, Day 1
  Change From Baseline in Percent Predicted Hemoglobin (HGB) Corrected Diffusing Capacity of Lung for Carbon Monoxide (DLco): −4.461 (19.865) Percent Predicted HGB Corrected DLco
Cohort 1: 200 mg QD, Cycle 26, Day 1
  Change From Baseline in Percent Predicted Hemoglobin (HGB) Corrected Diffusing Capacity of Lung for Carbon Monoxide (DLco): 4.715 (—) Percent Predicted HGB Corrected DLco
Cohort 1: 200 mg QD, Cycle 27, Day 1
  Change From Baseline in Percent Predicted Hemoglobin (HGB) Corrected Diffusing Capacity of Lung for Carbon Monoxide (DLco): −8.047 (24.788) Percent Predicted HGB Corrected DLco
Cohort 1: 200 mg QD, Cycle 29, Day 1
  Change From Baseline in Percent Predicted Hemoglobin (HGB) Corrected Diffusing Capacity of Lung for Carbon Monoxide (DLco): −6.701 (1.671) Percent Predicted HGB Corrected DLco
Cohort 1: 200 mg QD, Cycle 31, Day 1
  Change From Baseline in Percent Predicted Hemoglobin (HGB) Corrected Diffusing Capacity of Lung for Carbon Monoxide (DLco): 2.343 (20.988) Percent Predicted HGB Corrected DLco
Cohort 1: 200 mg QD, Cycle 32, Day 1
  Change From Baseline in Percent Predicted Hemoglobin (HGB) Corrected Diffusing Capacity of Lung for Carbon Monoxide (DLco): 5.586 (—) Percent Predicted HGB Corrected DLco
Cohort 1: 200 mg QD, Cycle 33, Day 1
  Change From Baseline in Percent Predicted Hemoglobin (HGB) Corrected Diffusing Capacity of Lung for Carbon Monoxide (DLco): 9.901 (9.954) Percent Predicted HGB Corrected DLco
Cohort 1: 200 mg QD, Cycle 34, Day 1
  Change From Baseline in Percent Predicted Hemoglobin (HGB) Corrected Diffusing Capacity of Lung for Carbon Monoxide (DLco): 4.863 (—) Percent Predicted HGB Corrected DLco
Cohort 1: 200 mg QD, Cycle 35, Day 1
  Change From Baseline in Percent Predicted Hemoglobin (HGB) Corrected Diffusing Capacity of Lung for Carbon Monoxide (DLco): 13.867 (1.309) Percent Predicted HGB Corrected DLco
Cohort 1: 200 mg QD, Cycle 36, Day 1
  Change From Baseline in Percent Predicted Hemoglobin (HGB) Corrected Diffusing Capacity of Lung for Carbon Monoxide (DLco): 4.166 (—) Percent Predicted HGB Corrected DLco
Cohort 1: 200 mg QD, Cycle 37, Day 1
  Change From Baseline in Percent Predicted Hemoglobin (HGB) Corrected Diffusing Capacity of Lung for Carbon Monoxide (DLco): 9.306 (—) Percent Predicted HGB Corrected DLco
Cohort 1: 200 mg QD, Cycle 39, Day 1
  Change From Baseline in Percent Predicted Hemoglobin (HGB) Corrected Diffusing Capacity of Lung for Carbon Monoxide (DLco): 14.754 (0.649) Percent Predicted HGB Corrected DLco
Cohort 1: 200 mg QD, Cycle 40, Day 1
  Change From Baseline in Percent Predicted Hemoglobin (HGB) Corrected Diffusing Capacity of Lung for Carbon Monoxide (DLco): 5.586 (—) Percent Predicted HGB Corrected DLco
Cohort 1: 200 mg QD, Cycle 41, Day 1
  Change From Baseline in Percent Predicted Hemoglobin (HGB) Corrected Diffusing Capacity of Lung for Carbon Monoxide (DLco): 22.884 (—) Percent Predicted HGB Corrected DLco
Cohort 1: 200 mg QD, Cycle 43, Day 1
  Change From Baseline in Percent Predicted Hemoglobin (HGB) Corrected Diffusing Capacity of Lung for Carbon Monoxide (DLco): 15.213 (—) Percent Predicted HGB Corrected DLco
Cohort 1: 200 mg QD, Cycle 49, Day 1
  Change From Baseline in Percent Predicted Hemoglobin (HGB) Corrected Diffusing Capacity of Lung for Carbon Monoxide (DLco): −3.599 (—) Percent Predicted HGB Corrected DLco
Cohort 1: 200 mg QD, Cycle 51, Day 1
  Change From Baseline in Percent Predicted Hemoglobin (HGB) Corrected Diffusing Capacity of Lung for Carbon Monoxide (DLco): 11.734 (—) Percent Predicted HGB Corrected DLco
Cohort 1: 200 mg QD, Cycle 53, Day 1
  Change From Baseline in Percent Predicted Hemoglobin (HGB) Corrected Diffusing Capacity of Lung for Carbon Monoxide (DLco): 10.292 (—) Percent Predicted HGB Corrected DLco
Cohort 1: 200 mg QD, Cycle 55, Day 1
  Change From Baseline in Percent Predicted Hemoglobin (HGB) Corrected Diffusing Capacity of Lung for Carbon Monoxide (DLco): 16.550 (—) Percent Predicted HGB Corrected DLco
Cohort 1: 200 mg QD, Cycle 61, Day 1
  Change From Baseline in Percent Predicted Hemoglobin (HGB) Corrected Diffusing Capacity of Lung for Carbon Monoxide (DLco): 17.682 (—) Percent Predicted HGB Corrected DLco
Cohort 1: 200 mg QD, Cycle 62, Day 1
  Change From Baseline in Percent Predicted Hemoglobin (HGB) Corrected Diffusing Capacity of Lung for Carbon Monoxide (DLco): 4.170 (—) Percent Predicted HGB Corrected DLco
Cohort 1: 200 mg QD, Cycle 63, Day 1
  Change From Baseline in Percent Predicted Hemoglobin (HGB) Corrected Diffusing Capacity of Lung for Carbon Monoxide (DLco): 26.215 (—) Percent Predicted HGB Corrected DLco
Cohort 1: 200 mg QD, Cycle 67, Day 1
  Change From Baseline in Percent Predicted Hemoglobin (HGB) Corrected Diffusing Capacity of Lung for Carbon Monoxide (DLco): 41.384 (—) Percent Predicted HGB Corrected DLco
Cohort 1: 200 mg QD, EOT
  Change From Baseline in Percent Predicted Hemoglobin (HGB) Corrected Diffusing Capacity of Lung for Carbon Monoxide (DLco): −1.962 (11.426) Percent Predicted HGB Corrected DLco
Cohort 2: 200 mg BID, Cycle 3, Day 1
  Change From Baseline in Percent Predicted Hemoglobin (HGB) Corrected Diffusing Capacity of Lung for Carbon Monoxide (DLco): −0.638 (7.059) Percent Predicted HGB Corrected DLco
Cohort 2: 200 mg BID, Cycle 5, Day 1
  Change From Baseline in Percent Predicted Hemoglobin (HGB) Corrected Diffusing Capacity of Lung for Carbon Monoxide (DLco): −4.462 (23.621) Percent Predicted HGB Corrected DLco
Cohort 2: 200 mg BID, Cycle 7, Day 1
  Change From Baseline in Percent Predicted Hemoglobin (HGB) Corrected Diffusing Capacity of Lung for Carbon Monoxide (DLco): 6.184 (9.436) Percent Predicted HGB Corrected DLco
Cohort 2: 200 mg BID, Cycle 8, Day 1
  Change From Baseline in Percent Predicted Hemoglobin (HGB) Corrected Diffusing Capacity of Lung for Carbon Monoxide (DLco): 3.554 (—) Percent Predicted HGB Corrected DLco
Cohort 2: 200 mg BID, Cycle 9, Day 1
  Change From Baseline in Percent Predicted Hemoglobin (HGB) Corrected Diffusing Capacity of Lung for Carbon Monoxide (DLco): 2.570 (8.902) Percent Predicted HGB Corrected DLco
Cohort 2: 200 mg BID, Cycle 10, Day 1
  Change From Baseline in Percent Predicted Hemoglobin (HGB) Corrected Diffusing Capacity of Lung for Carbon Monoxide (DLco): 4.343 (3.144) Percent Predicted HGB Corrected DLco
Cohort 2: 200 mg BID, Cycle 11, Day 1
  Change From Baseline in Percent Predicted Hemoglobin (HGB) Corrected Diffusing Capacity of Lung for Carbon Monoxide (DLco): 6.582 (10.695) Percent Predicted HGB Corrected DLco
Cohort 2: 200 mg BID, Cycle 12, Day 1
  Change From Baseline in Percent Predicted Hemoglobin (HGB) Corrected Diffusing Capacity of Lung for Carbon Monoxide (DLco): 4.076 (—) Percent Predicted HGB Corrected DLco
Cohort 2: 200 mg BID, Cycle 13, Day 1
  Change From Baseline in Percent Predicted Hemoglobin (HGB) Corrected Diffusing Capacity of Lung for Carbon Monoxide (DLco): 1.882 (7.522) Percent Predicted HGB Corrected DLco
Cohort 2: 200 mg BID, Cycle 14, Day 1
  Change From Baseline in Percent Predicted Hemoglobin (HGB) Corrected Diffusing Capacity of Lung for Carbon Monoxide (DLco): 0.358 (—) Percent Predicted HGB Corrected DLco
Cohort 2: 200 mg BID, Cycle 15, Day 1
  Change From Baseline in Percent Predicted Hemoglobin (HGB) Corrected Diffusing Capacity of Lung for Carbon Monoxide (DLco): 1.125 (5.927) Percent Predicted HGB Corrected DLco
